Measured values from US10800792B2, “Inhibitors of Bruton's tyrosine kinase and method of their use” (JANSSEN PHARMACEUTICA NV, priority 2015, dated 2020).

Target: unphosphorylated-BTK kinase domain (UP-BTK), GST-tagged human BTK (389-659aa) (Homo sapiens (Human), UniProt Q06187)
Experiment: BTK kinase Lanthascreen binding assay
Details: unphosphorylated-BTK kinase domain, 50 nM Tracer 236, 60 minutes; pIC50 = negative log of the IC50 in molar
How it was run: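 Tracer-displacement binding assay against the non-phosphorylated enzyme, read by Lanthascreen. Reported: pIC50.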

Sequence of unphosphorylated-BTK kinase domain (UP-BTK), GST-tagged human BTK (389-659aa) (Q06187 389-659): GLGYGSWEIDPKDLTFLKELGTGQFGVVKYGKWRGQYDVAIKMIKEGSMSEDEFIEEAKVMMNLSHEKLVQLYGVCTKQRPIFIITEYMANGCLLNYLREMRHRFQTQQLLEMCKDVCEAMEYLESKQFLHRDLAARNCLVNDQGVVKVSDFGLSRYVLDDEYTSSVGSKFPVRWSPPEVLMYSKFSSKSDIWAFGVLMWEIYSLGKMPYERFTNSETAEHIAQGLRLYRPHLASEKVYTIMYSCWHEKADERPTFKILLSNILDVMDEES

| BTK_I_binding pIC50 | Structure (SMILES) |
| --- | --- |
| 7.2 | CN(C)C/C=C/C(=O)N1CCC[C@@H](NC(=O)c2sc3nccc4c3c2NC(=O)N4c2ccc(Oc3ccccc3)c(Cl)c2)C1 [Example 541, (R,E)-5-(3-Chloro-4-phenoxyphenyl)-N-(1-(4-(dimethylamino)but-2-enoyl)piperidin-3-yl)-4-oxo-4,5-dihydro-3H-1-thia-3,5,8-triazaacenaphthylene-2-carboxamide] |
| 7.5 | C=CC(=O)N1C[C@H](NC(=O)c2sc3nccc4c3c2NC(=O)N4c2ccc(Oc3ccccc3)cc2)[C@@H](F)C1 [Example 543, N-((3S,4S)-1-Acryloyl-4-fluoropyrrolidin-3-yl)-4-oxo-5-(4-phenoxyphenyl)-4,5-dihydro-3H-1-thia-3,5,8-triazaacenaphthylene-2-carboxamide] |
| 7.0 | C=CC(=O)N1CC[C@H](C(=O)Nc2sc3nccc4c3c2NC(=O)N4c2ccc(Oc3ccccc3)cc2C)C1 [Example 544, (S)-1-Acryloyl-N-(5-(2-methyl-4-phenoxyphenyl)-4-oxo-4,5-dihydro-3H-1-thia-3,5,8-triazaacenaphthylen-2-yl)pyrrolidine-3-carboxamide] |
| 6.9 | C=CC(=O)N1CC[C@@H](C(=O)Nc2sc3nccc4c3c2NC(=O)N4c2ccc(Oc3ccccc3)cc2C)C1 [Example 545, (R)-1-Acryloyl-N-(5-(2-methyl-4-phenoxyphenyl)-4-oxo-4,5-dihydro-3H-1-thia-3,5,8-triazaacenaphthylen-2-yl)pyrrolidine-3-carboxamide] |
| 7.4 | CNCC(=O)N1CCC[C@@H](NC(=O)c2sc3nccc4c3c2NC(=O)N4c2ccc(Oc3ccccc3)cc2)C1 [Example 546, (R)—N-(1-(2-(Methylamino)acetyl)piperidin-3-yl)-4-oxo-5-(4-phenoxyphenyl)-4,5-dihydro-3H-1-thia-3,5,8-triazaacenaphthylene-2-carboxamide] |
| 7.4 | Cc1cc(Oc2ccccc2)ccc1N1C(=O)Nc2c(C(=O)N[C@@H]3CCCN(C(=O)[C@@H](C)CO)C3)sc3nccc1c23 [Example 547, N—((R)-1-((S)-3-Hydroxy-2-methylpropanol)piperidin-3-yl)-5-(2-methyl-4-phenoxyphenyl)-4-oxo-4,5-dihydro-3H-1-thia-3,5,8-triazaacenaphthylene-2-carboxamide] |
| 6.9 | C=CC(=O)N1C[C@H](NC(=O)c2sc3nccc4c3c2NC(=O)N4c2ccc(Oc3ccccc3)cc2)[C@@H](OC)C1 [Example 548, N-((3S,4S)-1-Acryloyl-4-methoxypyrrolidin-3-yl)-4-oxo-5-(4-phenoxyphenyl)-4,5-dihydro-3H-1-thia-3,5,8-triazaacenaphthylene-2-carboxamide] |
| 7.2 | Cc1cc(Oc2ccccc2)ccc1N1C(=O)Nc2c(C(=O)N[C@@H]3CCCN(C(=O)/C(F)=C/CN)C3)sc3nccc1c23 [Example 549, (R,Z)—N-(1-(4-Amino-2-fluorobut-2-enoyl)piperidin-3-yl)-5-(2-methyl-4-phenoxyphenyl)-4-oxo-4,5-dihydro-3H-1-thia-3,5,8-triazaacenaphthylene-2-carboxamide] |
| 7.3 | Cc1cc(Oc2ccccc2)ccc1N1C(=O)Nc2c(C(=O)N[C@@H]3CCCN(C(=O)/C(Cl)=C/CN)C3)sc3nccc1c23 [Example 550, (R,Z)—N-(1-(4-Amino-2-chlorobut-2-enoyl)piperidin-3-yl)-5-(2-methyl-4-phenoxyphenyl)-4-oxo-4,5-dihydro-3H-1-thia-3,5,8-triazaacenaphthylene-2-carboxamide] |
| 6.8 | CNCC(=O)N1CCC[C@@H](NC(=O)c2sc3nccc4c3c2NC(=O)N4c2cccc(-c3ccccc3)c2)C1 [Example 551, (R)-5-([1,1′-Biphenyl]-3-yl)-N-(1-(2-(methylamino)acetyl)piperidin-3-yl)-4-oxo-4,5-dihydro-3H-1-thia-3,5,8-triazaacenaphthylene-2-carboxamide] |
| 6.8 | CN1CCC[C@@H](NC(=O)c2sc3nccc4c3c2NC(=O)N4c2cccc(-c3ccccc3)c2)C1 [Example 552, (R)-5-([1,1′-Biphenyl]-3-yl)-N-(1-methylpiperidin-3-yl)-4-oxo-4,5-dihydro-3H-1-thia-3,5,8-triazaacenaphthylene-2-carboxamide] |
| 6.8 | Cc1cccc(-c2cccc(N3C(=O)Nc4c(C(=O)N[C@@H]5CCCNC5)sc5nccc3c45)c2)c1 [Example 553, (R)-5-(3′-Methyl-[1,1′-biphenyl]-3-yl)-4-oxo-N-(piperidin-3-yl)-4,5-dihydro-3H-1-thia-3,5,8-triazaacenaphthylene-2-carboxamide] |

More lines, now with the values behind:

| Structure (SMILES) | BTK_I_binding pIC50 |
| --- | --- |
| C=CC(=O)N1CCC[C@@H](NC(=O)c2sc3nccc4c3c2NC(=O)N4c2cccc(-c3cccc(C)c3)c2)C1 [Example 517, (R)—N-(1-Acryloylpiperidin-3-yl)-5-(3′-methyl-[1,1′-biphenyl]-3-yl)-4-oxo-4,5-dihydro-3H-1-thia-3,5,8-triazaacenaphthylene-2-carboxamide] | 7.5 |
| C=CC(=O)N1CCC[C@@H](NC(=O)c2sc3nccc4c3c2NC(=O)N4c2cccc(C3CCCCC3)c2)C1 [Example 519, (R)—N-(1-Acryloylpiperidin-3-yl)-5-(3-cyclohexylphenyl)-4-oxo-4,5-dihydro-3H-1-thia-3,5,8-triazaacenaphthylene-2-carboxamide] | 7.3 |
| C=CC(=O)N1CCC[C@@H](NC(=O)c2sc3nccc4c3c2NC(=O)N4c2cccc(-c3ccc(C)cc3)c2)C1 [Example 521, (R)—N-(1-Acryloylpiperidin-3-yl)-5-(4′-methyl-[1,1′-biphenyl]-3-yl)-4-oxo-4,5-dihydro-3H-1-thia-3,5,8-triazaacenaphthylene-2-carboxamide] | 7.5 |
| C=CC(=O)N1CCC[C@@H](NC(=O)c2sc3nccc4c3c2NC(=O)N4c2ccc3c(c2)OC(F)(F)O3)C1 [Example 525, (R)—N-(1-Acryloylpiperidin-3-yl)-5-(2,2-difluorobenzo[d][1,3]dioxol-5-yl)-4-oxo-4,5-dihydro-3H-1-thia-3,5,8-triazaacenaphthylene-2-carboxamide] | 7.5 |
| C=CC(=O)N1CCC[C@@H](NC(=O)c2sc3nccc4c3c2NC(=O)N4c2cc(-c3ccccc3)ccn2)C1 [Example 526, (R)—N-(1-Acryloylpiperidin-3-yl)-4-oxo-5-(4-phenylpyridin-2-yl)-4,5-dihydro-3H-1-thia-3,5,8-triazaacenaphthylene-2-carboxamide] | 7.6 |
| C=CC(=O)N1CCC[C@@H](NC(=O)c2sc3nccc4c3c2NC(=O)N4c2cccc(Oc3ccccc3)c2)C1 [Example 527, (R)—N-(1-Acryloylpiperidin-3-yl)-4-oxo-5-(3-phenoxyphenyl)-4,5-dihydro-3H-1-thia-3,5,8-triazaacenaphthylene-2-carboxamide] | 8.1 |
| C=CC(=O)N1CCC[C@@H](NC(=O)c2sc3nccc4c3c2NC(=O)N4c2cnc(Oc3ccccc3)cn2)C1 [Example 528, (R)—N-(1-Acryloylpiperidin-3-yl)-4-oxo-5-(5-phenoxypyrazin-2-yl)-4,5-dihydro-3H-1-thia-3,5,8-triazaacenaphthylene-2-carboxamide] | 7.8 |
| C=CC(=O)N1CCC[C@@H](NC(=O)c2sc3nccc4c3c2NC(=O)N4c2cccc(C(C)C)c2)C1 [Example 529, (R)—N-(1-Acryloylpiperidin-3-yl)-5-(3-isopropylphenyl)-4-oxo-4,5-dihydro-3H-1-thia-3,5,8-triazaacenaphthylene-2-carboxamide] | 7.6 |
| C=CC(=O)N1CC[C@@H](NC(=O)c2sc3nccc4c3c2NC(=O)N4c2cccc(-c3ccccc3)c2)C1 [Example 531, (R)-5-([1,1′-Biphenyl]-3-yl)-N-(1-acryloylpyrrolidin-3-yl)-4-oxo-4,5-dihydro-3H-1-thia-3,5,8-triazaacenaphthylene-2-carboxamide] | 7.5 |
| C=CC(=O)N1CCC[C@@H](NC(=O)c2sc3nccc4c3c2NC(=O)N4c2cccc(CCC)c2)C1 [Example 533, (R)—N-(1-Acryloylpiperidin-3-yl)-4-oxo-5-(3-propylphenyl)-4,5-dihydro-3H-1-thia-3,5,8-triazaacenaphthylene-2-carboxamide] | 7.5 |
| C=CC(=O)N1CCC[C@@H](NC(=O)c2sc3nccc4c3c2NC(=O)N4c2cccc(C3CCC3)c2)C1 [Example 534, (R)—N-(1-Acryloylpiperidin-3-yl)-5-(3-cyclobutylphenyl)-4-oxo-4,5-dihydro-3H-1-thia-3,5,8-triazaacenaphthylene-2-carboxamide] | 7.8 |
| C=CC(=O)N1CCC[C@@H](NC(=O)c2sc3nccc4c3c2NC(=O)N4c2ccc(Oc3ccccc3)c(C)c2)C1 [Example 536, (R)—N-(1-Acryloylpiperidin-3-yl)-5-(3-methyl-4-phenoxyphenyl)-4-oxo-4,5-dihydro-3H-1-thia-3,5,8-triazaacenaphthylene-2-carboxamide] | 7.5 |
| C=CC(=O)N1CCC[C@@H](NC(=O)c2sc3nccc4c3c2NC(=O)N4c2cncc(-c3ccccc3)c2)C1 [Example 537, (R)—N-(1-Acryloylpiperidin-3-yl)-4-oxo-5-(5-phenylpyridin-3-yl)-4,5-dihydro-3H-1-thia-3,5,8-triazaacenaphthylene-2-carboxamide] | 7.6 |
| C=CC(=O)N1CCC[C@@H](NC(=O)c2sc3nccc4c3c2NC(=O)N4c2cccc(-c3cccnc3)c2)C1 [Example 538, (R)—N-(1-Acryloylpiperidin-3-yl)-4-oxo-5-(3-(pyridin-3-yl)phenyl)-4,5-dihydro-3H-1-thia-3,5,8-triazaacenaphthylene-2-carboxamide] | 7.0 |
| C=CC(=O)N1CCC[C@@H](NC(=O)c2sc3nccc4c3c2NC(=O)N4c2cccc(-c3ccccn3)c2)C1 [Example 540, (R)—N-(1-Acryloylpiperidin-3-yl)-4-oxo-5-(3-(pyridin-2-yl)phenyl)-4,5-dihydro-3H-1-thia-3,5,8-triazaacenaphthylene-2-carboxamide] | 7.2 |
